Target: Recombinant human Mat2a (Homo sapiens (Human), UniProt P31153)
Experiment: Determination of Mat2A activity: 384 well format absorbance-based Mat2A inhibition assay
Format: biochemical
Settings: 12.5 nM Mat2A, 100 μM ATP and Methionine, 2% DMSO, 120 minutes at RT, Biomol Green, absorbance at 635 nm
Protocol: Determination of Mat2A Activity
Measurement of Mat2A inhibition is performed in 384 well format absorbance-based assay.
Recombinant human Mat2a (12.5 nM) and serial diluted compounds in DMSO (range of concentrations from 10 μM to […]) or controls (DMSO) are incubated for 15 minutes at room temperature (RT) in assay buffer containing 50 mM HEPES pH 7.5, 50 mM KCl, 50 mM MgCl2, 0.01% Tween 20 and 10 mM DTT. The reaction is initiated by the addition of the combined substrates ATP and Methionine, each at a final concentration of 100 μM. Final assay condition are 12.5 nM Mat2A, 100 μM ATP and Methionine Substrates and 2% DMSO. After 120 minutes of incubation at RT, the reaction is stopped by the addition of Biomol Green. The absorbance signal is measured at λ=635 nm with a multiplate reader (BMG Pherastar reader or equivalent) after 30 min of equilibration at RT.

Sequence of Recombinant human Mat2a (P31153 whole entry): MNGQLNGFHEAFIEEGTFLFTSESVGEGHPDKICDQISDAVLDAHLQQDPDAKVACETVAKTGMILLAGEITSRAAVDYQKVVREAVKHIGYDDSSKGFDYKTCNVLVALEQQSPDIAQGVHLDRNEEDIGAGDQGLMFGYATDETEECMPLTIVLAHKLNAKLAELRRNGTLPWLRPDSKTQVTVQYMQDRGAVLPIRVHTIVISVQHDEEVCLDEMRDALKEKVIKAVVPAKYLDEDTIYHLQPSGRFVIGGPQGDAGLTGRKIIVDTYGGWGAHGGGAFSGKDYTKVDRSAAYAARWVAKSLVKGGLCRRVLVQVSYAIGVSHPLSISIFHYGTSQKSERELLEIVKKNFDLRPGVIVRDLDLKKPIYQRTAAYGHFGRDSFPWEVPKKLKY

| IC50 [nM] | Structure (SMILES) |
| --- | --- |
| 290 | COC1CCCCC1C(=O)n1nc(N)c2ccc(C3CC3)nc21 (centres unmarked) [Example 37, (3-amino-6-cyclopropyl-1H-pyrazolo[3,4-b]pyridin-1-yl)(2-methoxycyclohexyl)methanone] |
| 120 | COc1ccccc1C(=O)n1nc(N)c2cc3c(nc21)CC(C)CC3 (centres unmarked) [Example 38, (3-amino-7-methyl-5,6,7,8-tetrahydro-1H-pyrazolo[3,4-b]quinolin-1-yl)(2-methoxyphenyl)methanone] |
| 32 | COc1ccccc1C(=O)n1nc(N)c2ccc(C3CC3(F)F)nc21 (centres unmarked) [Example 40, (3-amino-6-(2,2-difluorocyclopropyl)-1H-pyrazolo[3,4-b]pyridin-1-yl)(2-methoxyphenyl)methanone] |
| 150 | Cc1ccccc1C(=O)n1nc(N)c2ccc(C3CC3(F)F)nc21 (centres unmarked) [Example 41, (3-amino-6-(2,2-difluorocyclopropyl)-1H-pyrazolo[3,4-b]pyridin-1-yl)(o-tolyl)methanone] |
| 91 | COc1c(F)cccc1C(=O)n1nc(N)c2ccc(C3CC3(F)F)nc21 (centres unmarked) [Example 45, (3-amino-6-(2,2-difluorocyclopropyl)-1H-pyrazolo[3,4-b]pyridin-1-yl)(3-fluoro-2-methoxyphenyl)methanone] |
| 55 | COc1c(F)cccc1C(=O)n1nc(N)c2cc(F)c(N3CCCC3)nc21 [Example 46, (3-amino-5-fluoro-6-(pyrrolidin-1-yl)-1H-pyrazolo[3,4-b]pyridin-1-yl)(3-fluoro-2-methoxyphenyl)methanone] |
| 25 | COc1c(F)cccc1C(=O)n1nc(N)c2ccc(C3=CCOC3)nc21 [Example 47, [3-amino-6-(2,5-dihydrofuran-3-yl)pyrazolo[3,4-b]pyridin-1-yl]-(3-fluoro-2-methoxyphenyl)methanone] |
| 130 | Cc1ccccc1C(=O)n1nc(N)c2ccc(C3(C)CC3)nc21 [Example 48, (3-amino-6-(1-methylcyclopropyl)-1H-pyrazolo[3,4-b]pyridin-1-yl)(o-tolyl)methanone] |
| 22 | Cc1ncccc1C(=O)n1nc(N)c2ccc(C3CC3(F)F)nc21 (centres unmarked) [Example 49, (3-amino-6-(2,2-difluorocyclopropyl)-1H-pyrazolo[3,4-b]pyridin-1-yl)(2-methylpyridin-3-yl)methanone] |
| 160 | CC1OCCC1C(=O)n1nc(N)c2ccc(C3CC3(F)F)nc21 (centres unmarked) [Example 50, (3-amino-6-(2,2-difluorocyclopropyl)-1H-pyrazolo[3,4-b]pyridin-1-yl)(2-methyltetrahydrofuran-3-yl)methanone] |
| 210 | Cc1c(F)cccc1C(=O)n1nc(N)c2ccc(C3CC3)nc21 [Example 54, (3-amino-6-cyclopropyl-1H-pyrazolo[3,4-b]pyridin-1-yl)(3-fluoro-2-methylphenyl)methanone] |
| 320 | Cc1cccc(C(=O)n2nc(N)c3ccc(C4CC4)nc32)c1C [Example 55, (3-amino-6-cyclopropyl-1H-pyrazolo[3,4-b]pyridin-1-yl)(2,3-dimethylphenyl)methanone] |
| 430 | Nc1nn(C(=O)C2CCCCC2)c2nc(C3CC3)ccc12 [Example 56, (3-amino-6-cyclopropyl-1H-pyrazolo[3,4-b]pyridin-1-yl)(cyclohexyl)methanone] |
| 110 | COc1c(F)cccc1C(=O)n1nc(N)c2ccc(C3CC3)nc21 [Example 57, (3-amino-6-cyclopropyl-1H-pyrazolo[3,4-b]pyridin-1-yl)(3-fluoro-2-methoxyphenyl)methanone] |
| 300 | COc1cc(F)ccc1C(=O)n1nc(N)c2ccc(C3CC3)nc21 [Example 58, (3-amino-6-cyclopropyl-1H-pyrazolo[3,4-b]pyridin-1-yl)(4-fluoro-2-methoxyphenyl)methanone] |
| 37 | CCc1ccccc1C(=O)n1nc(N)c2ccc(C3CC3)nc21 [Example 60, (3-amino-6-cyclopropyl-1H-pyrazolo[3,4-b]pyridin-1-yl)(2-ethylphenyl)methanone] |
| 130 | Nc1nn(C(=O)c2ccccc2OC(F)F)c2nc(C3CC3)ccc12 [Example 61, (3-amino-6-cyclopropyl-1H-pyrazolo[3,4-b]pyridin-1-yl)(2-(difluoromethoxy)phenyl)methanone] |

| IC50 [nM] | Structure (SMILES) |
| --- | --- |
| 350 | Cc1ocnc1C(=O)n1nc(N)c2ccc(C3CC3)nc21 [Example 62, (3-amino-6-cyclopropyl-1H-pyrazolo[3,4-b]pyridin-1-yl)(5-methyloxazol-4-yl)methanone] |
| 130 | Cc1ncsc1C(=O)n1nc(N)c2ccc(C3CC3)nc21 [Example 63, (3-amino-6-cyclopropyl-1H-pyrazolo[3,4-b]pyridin-1-yl)(4-methylthiazol-5-yl)methanone] |
| 41 | CC1OCCC1C(=O)n1nc(N)c2ccc(C3CC3)nc21 (centres unmarked) [Example 64, (3-amino-6-cyclopropyl-1H-pyrazolo[3,4-b]pyridin-1-yl)(2-methyltetrahydrofuran-3-yl)methanone] |
| 54 | Cc1c(C#N)cccc1C(=O)n1nc(N)c2ccc(C3CC3)nc21 [Example 66, 3-(3-amino-6-cyclopropyl-1H-pyrazolo[3,4-b]pyridine-1-carbonyl)-2-methylbenzonitrile] |
| 49 | Nc1nn(C(=O)C2CCOCC2)c2nc(C3CC3)ccc12 [Example 67, (3-amino-6-cyclopropyl-1H-pyrazolo[3,4-b]pyridin-1-yl)(tetrahydro-2H-pyran-4-yl)methanone] |
| 19 | Cc1ncccc1C(=O)n1nc(N)c2ccc(C3CC3)nc21 [Example 68, (3-amino-6-cyclopropyl-1H-pyrazolo[3,4-b]pyridin-1-yl)(2-methylpyridin-methylpyridine-3-yl)methanone] |
| 79 | Nc1nn(C(=O)C2CCNC(=O)C2)c2nc(C3CC3)ccc12 (centres unmarked) [Example 69, 4-(3-amino-6-cyclopropyl-1H-pyrazolo[3,4-b]pyridine-1-carbonyl)piperidin-2-one] |
| 180 | COc1c(C)cccc1C(=O)n1nc(N)c2ccc(C3CC3)nc21 [Example 70, (3-amino-6-cyclopropyl-1H-pyrazolo[3,4-b]pyridin-1-yl)(2-methoxy-3-methylphenyl)methanone] |
| 480 | COc1c(Cl)cccc1C(=O)n1nc(N)c2ccc(C3CC3)nc21 [Example 71, (3-amino-6-cyclopropyl-1H-pyrazolo[3,4-b]pyridin-1-yl)(3-chloro-2-methoxyphenyl)methanone] |
| 37 | COc1c(C#N)cccc1C(=O)n1nc(N)c2ccc(C3CC3)nc21 [Example 72, 3-(3-amino-6-cyclopropyl-1H-cyclopropyl-1H-pyrazolo[3,4-b]pyridine-1-carbonyl)-2-methoxybenzonitrile] |
| 180 | Nc1nn(C(=O)C2CCCOC2)c2nc(C3CC3)ccc12 (centres unmarked) [Example 73, (3-amino-6-cyclopropyl-1H-cyclopropyl-1H-pyrazolo[3,4-b]pyridin-1-yl)(tetrahydro-2H-pyran-3-yl)methanone] |
| 220 | Cc1nccnc1C(=O)n1nc(N)c2ccc(C3CC3)nc21 [Example 74, (3-amino-6-cyclopropyl-1H-pyrazolo[3,4-b]pyridin-1-yl)(3-methylpyrazin-2-yl)methanone] |
| 26 | COc1ncccc1C(=O)n1nc(N)c2ccc(C3CC3)nc21 [Example 75, (3-amino-6-cyclopropyl-1H-pyrazolo[3,4-b]pyridin-1-yl)(2-methoxypyridin-3-yl)methanone] |
| 17 | Nc1nn(C(=O)c2cccnc2Cl)c2nc(C3CC3)ccc12 [Example 76, (3-amino-6-cyclopropyl-1H-pyrazolo[3,4-b]pyridin-1-yl)(2-chloropyridin-3-yl)methanone] |
| 31 | Nc1nn(C(=O)c2cccnc2C(F)(F)F)c2nc(C3CC3)ccc12 [Example 77, (3-amino-6-cyclopropyl-1H-pyrazolo[3,4-b]pyridin-1-yl)(2-(trifluoromethyl)pyridin-3-yl)methanone] |
| 200 | Cc1nnccc1C(=O)n1nc(N)c2ccc(C3CC3)nc21 [Example 78, (3-amino-6-cyclopropyl-1H-pyrazolo[3,4-b]pyridin-1-yl)(3-methylpyridazin-4-yl)methanone] |
| 150 | Cc1nscc1C(=O)n1nc(N)c2ccc(C3CC3)nc21 [Example 79, (3-amino-6-cyclopropyl-1H-pyrazolo[3,4-b]pyridin-1-yl)(3-methylisothiazol-4-yl)methanone] |

| Structure (SMILES) | IC50 [nM] |
| --- | --- |
| COc1ccccc1C(=O)n1nc(N)c2ccc(N3C4CCC3CC4)nc21 [Example 53, [3-amino-6-(7-azabicyclo[2.2.1]heptan-7-yl)pyrazolo[3,4-b]pyridin-1-yl]-(2-methoxyphenyl)methanone] | 240 |

— patent publication US20230382911A1 (Hoffmann-La Roche Inc., priority 2021, published 2023)
